Experimental data taken from ChEMBL document CHEMBL1151619, “Structure and conformation of two new dolabellane-based diterpenes from Dictyota sp” (J Nat Prod, 1984).
The source made the active and inactive calls. The calls are words filed in the database; no cut-off is given here.

System: KB
Assay: Cytotoxicity against human KB cells
Assay type: functional, cell-based

SMILES: C=C(C)[C@@H]1CC[C@]2(C)C[C@H](OC(C)=O)/C(CO)=C/CC/C(C)=C/C[C@@H]12
- Activity: Active
